The results in this text go back to PMC9598282 (Antibiotics, 2022).

Structures are written as SMILES. Read-outs that look alike come from different tables or passages of the source.

One assay relates to A. baumannii AB027. Briefly: microbe, parasite or virus in culture. The assay is classed as cell-based, Acinetobacter baumannii. The settings on record: one value per checkerboard plate. The protocol:
(§1) The adjuvant properties of the guanidinylated polymyxins were evaluated using the checkerboard assay as previously described. The bacterial solution was prepared as described in the antimicrobial susceptibility assay. The antibiotic of interest and the adjuvant were serially diluted two-fold along the x- and y-axis on a 96-well plate, respectively, resulting in varying concentrations of both agents in each well. Equal volumes of bacterial solution were added to the designated wells. The well consisting of bacterial solution served as the positive control, while the wells containing only media served as the negative control. The plate was then incubated at 37 °C for 18 h. After incubation, an Emax Plus microplate reader (Molecular Devices, Union City, CA, USA) was used to measure the OD at a wavelength of 590 nm to confirm the turbidity. The fractional inhibitory concentration (FIC) index was then determined to establish the relationship between the antibiotic and adjuvant. The FIC index corresponds to the sum of the FICs of the antibiotic and adjuvant. The FIC of each agent is calculated by dividing its MIC when it is used in combination by its MIC when used alone. FIC indices ≤0.5, 0.5 < x ≤ 4 and >4 indicate synergy, additivity and antagonism, respectively.

A further assay relates to A. baumannii ATCC 17978. Briefly: microbe, parasite or virus in culture. The assay is classed as cell-based, Acinetobacter baumannii. As to conditions: for MIC: Acinetobacter baumannii, ATCC17978, 18 h, read-out: MIC alone. The protocol: as §1
For a further assay, the system named is A. baumannii 110193. Kind of assay: microbe, parasite or virus in culture. The assay is classed as cell-based, Acinetobacter baumannii. The settings on record: one value per checkerboard plate. As for the experimental part:
as §1

The test system of another assay is A. baumannii 92247. Kind of assay: microbe, parasite or virus in culture. The assay is classed as cell-based, Acinetobacter baumannii. The settings on record: Acinetobacter baumannii, 92247, agent alone, one value per checkerboard plate. As for the experimental part: as §1
The next assay has as its system E. coli 94393. Kind of assay: Checkerboard assay. As to conditions: Escherichia coli, 94393, agent alone, one value per checkerboard plate. The assay is classed as cell-based, Escherichia coli. The protocol: as §1
Another assay relates to E. coli 94474. Kind of assay: Checkerboard assay. The assay is classed as cell-based, Escherichia coli. The settings on record: Escherichia coli, 94474, agent alone, one value per checkerboard plate. As for the experimental part:
as §1

In the next assay the test system is P. aeruginosa 101243. Briefly: Checkerboard assay. The settings on record: Pseudomonas aeruginosa, 101243, agent alone, one value per checkerboard plate. The class given is cell-based, Pseudomonas aeruginosa. As for the experimental part: as §1
The subject of assay [1] is P. aeruginosa P262-101856. Kind of assay: Checkerboard assay. The settings on record: Pseudomonas aeruginosa, P262101856, agent alone, one value per checkerboard plate. The class given is cell-based, Pseudomonas aeruginosa. As for the experimental part: as §1
The next assay deals with E. coli ATCC 25922. Kind of assay: microbe, parasite or virus in culture. The class given is cell-based, Escherichia coli. On the set-up: key to FIC index antibiotic + GCol / FIC index antibiotic + GPMB: sum of FICs; ≤0.5 synergy, 0.5–4 additivity, >4 antagonism. The settings on record: for MIC: Escherichia coli, ATCC25922, 18 h, read-out: MIC alone. The protocol:
as §1

The subject of the next assay is A. baumannii AB031. Kind of assay: Checkerboard assay. The class given is cell-based, Acinetobacter baumannii. As to conditions: Acinetobacter baumannii, AB031, agent alone, one value per checkerboard plate. The protocol: as §1
The test system of the next assay is P. aeruginosa 114228. Kind of assay: microbe, parasite or virus in culture. The class given is cell-based, Pseudomonas aeruginosa. The settings on record: Pseudomonas aeruginosa, 114228, agent alone, one value per checkerboard plate. As for the experimental part:
as §1

The next assay relates to P. aeruginosa PAO1. Briefly: microbe, parasite or virus in culture. The class given is cell-based, Pseudomonas aeruginosa. As to conditions: for MIC: Pseudomonas aeruginosa, PAO1, 18 h, read-out: MIC alone. The protocol: as §1
A further assay concerns K. pneumoniae 113250. Kind of assay: Checkerboard assay. The assay is classed as cell-based, Klebsiella pneumoniae. The settings on record: one value per checkerboard plate. The protocol: as §1
A further assay deals with K. pneumoniae 113254. Briefly: Checkerboard assay. The settings on record: Klebsiella pneumoniae, 113254, agent alone, one value per checkerboard plate. The class given is cell-based, Klebsiella pneumoniae. As for the experimental part:
as §1

The subject of the next assay is E. cloacae 121187. Kind of assay: microbe, parasite or virus in culture. The assay is classed as cell-based, Enterobacter cloacae. As to conditions: one value per checkerboard plate. As for the experimental part: as §1
Another assay relates to E. coli 107115. Briefly: microbe, parasite or virus in culture. The assay is classed as cell-based, Escherichia coli. The settings on record: Escherichia coli, 107115, agent alone, one value per checkerboard plate. As for the experimental part: as §1
The mark [2] stands for this setting: agent alone, one value per checkerboard plate.

As to `CC[C@H]1OC(=O)[C@H](C)[C@@H](O[C@H]2C[C@@](C)(OC)[C@@H](O)[C@H](C)O2)[C@H](C)[C@@H](O[C@@H]2O[C@H](C)C[C@H](N(C)C)[C@H]2O)[C@](C)(O)C[C@@H](C)C(=O)[C@H](C)[C@@H](O)[C@]1(C)O` [Erythromycin], the MIC with A. baumannii AB027 (Acinetobacter baumannii, AB027, agent alone) worked out at 8 µg/mL; with A. baumannii ATCC 17978 (setting [2]) it was 32 µg/mL; in the assay with A. baumannii 110193 (Acinetobacter baumannii, 110193, agent alone), 2 µg/mL; in the assay with A. baumannii 92247 it was 8 µg/mL; in the assay on E. coli 94393 it was 64 µg/mL; in the assay on E. coli 94474 it was 64 µg/mL. Besides, the MIC with P. aeruginosa 101243 came out at 1020 µg/mL; in assay [1], 2050 µg/mL; with E. coli ATCC 25922 (setting [2]) it was 32 µg/mL; with A. baumannii AB031, 16 µg/mL; in the assay with P. aeruginosa 114228 it was 64 µg/mL; with K. pneumoniae 113250 (Klebsiella pneumoniae, 113250, agent alone) it was 32 µg/mL. Further, the MIC in the assay with K. pneumoniae 113254 was 64 µg/mL; in the assay with E. cloacae 121187 (Enterobacter cloacae, 121187, agent alone) it was 1020 µg/mL; in the assay with E. coli 107115 it was 2050 µg/mL. The MIC alone in the assay with A. baumannii AB027 (agent alone) was determined as 4 µg/mL; in the assay with A. baumannii 110193 (agent alone), 4 µg/mL; in the assay on K. pneumoniae 113250 (agent alone), 64 µg/mL; in the assay on E. cloacae 121187 (agent alone), 512 µg/mL. Moreover, the “Absolute MIC of antibiotic at 2 μg/mL GCol” value in the assay on A. baumannii ATCC 17978 is 32 µg/mL; with E. coli ATCC 25922, 0.25 µg/mL. The “Absolute MIC of antibiotic at 2 μg/mL GPMB” value with A. baumannii ATCC 17978 was found to be 0.5 µg/mL. In the assay on P. aeruginosa PAO1, the “Absolute MIC of antibiotic at 4 μg/mL GCol” value came to 16 µg/mL. In addition, the “Absolute MIC of antibiotic at 4 μg/mL GPMB” value in the assay on P. aeruginosa PAO1 is 2 µg/mL.

Turning to `C=C[C@]1(C)C[C@@H](OC(=O)CO)[C@]2(C)[C@H](C)CC[C@]3(CCC(=O)[C@H]32)[C@@H](C)[C@@H]1O` [Pleuromutilin], the “Absolute MIC of antibiotic at 2 μg/mL GCol” value worked out at 32 µg/mL in the assay with A. baumannii ATCC 17978 and 0.25 µg/mL in the assay on E. coli ATCC 25922. Also, the “Absolute MIC of antibiotic at 2 μg/mL GPMB” value in the assay on A. baumannii ATCC 17978 worked out at 2 µg/mL; in the assay with E. coli ATCC 25922, 0.125 µg/mL. Moreover, the “FIC index antibiotic + GPMB” value with A. baumannii ATCC 17978 is recorded as 0.129; in the assay on E. coli ATCC 25922, 0.035. Moreover, the MIC in the assay on A. baumannii ATCC 17978 (setting [2]) worked out at 512 µg/mL; with E. coli ATCC 25922 (setting [2]) it was 64 µg/mL; in the assay on P. aeruginosa PAO1 (setting [2]), 1020 µg/mL. The Fold-potentiation of antibiotic with A. baumannii ATCC 17978 (at 2 μg/mL GCol) was determined as 16; in the assay on A. baumannii ATCC 17978 (at 2 μg/mL GPMB) it was 256; in the assay with E. coli ATCC 25922 (at 2 μg/mL GCol) it was 256; in the assay on E. coli ATCC 25922 (at 2 μg/mL GPMB) it was 512; in the assay with P. aeruginosa PAO1 (at 4 μg/mL GCol), 4; with P. aeruginosa PAO1 (at 4 μg/mL GPMB), 32. In addition, the “FIC index antibiotic + GCol” value with E. coli ATCC 25922 stood at 0.066. Moreover, in the assay with P. aeruginosa PAO1, the “Absolute MIC of antibiotic at 4 μg/mL GCol” value was 256 µg/mL. For the same compound, in the assay with P. aeruginosa PAO1, the “Absolute MIC of antibiotic at 4 μg/mL GPMB” value worked out at 32 µg/mL.

For `NC[C@H]1O[C@H](O[C@H]2[C@H](O)[C@@H](O[C@H]3O[C@H](CO)[C@@H](O)[C@H](N)[C@H]3O)[C@H](N)C[C@@H]2N)[C@H](N)C[C@@H]1O` [Tobramycin], the “Absolute MIC of antibiotic at 2 μg/mL GCol” value in the assay on A. baumannii ATCC 17978 and with E. coli ATCC 25922 was 1 µg/mL each time. The “Absolute MIC of antibiotic at 2 μg/mL GPMB” value with A. baumannii ATCC 17978 was 2 µg/mL; with E. coli ATCC 25922 it was 1 µg/mL. Further, the results for the “FIC index antibiotic + GPMB” value in the assay with A. baumannii ATCC 17978, with E. coli ATCC 25922 and in the assay with P. aeruginosa PAO1 were 1, 1.031 and 1.016, respectively. Besides, the figures for the MIC in the assay on A. baumannii ATCC 17978 (setting [2]), in the assay on E. coli ATCC 25922 (setting [2]) and in the assay on P. aeruginosa PAO1 (setting [2]) were 1 µg/mL, 2 µg/mL and 2 µg/mL, respectively. The Fold-potentiation of antibiotic with A. baumannii ATCC 17978 (at 2 μg/mL GCol) came out at 1; in the assay with A. baumannii ATCC 17978 (at 2 μg/mL GPMB) it was 1; with E. coli ATCC 25922 (at 2 μg/mL GCol) it was 2; with E. coli ATCC 25922 (at 2 μg/mL GPMB), 1; in the assay with P. aeruginosa PAO1 (at 4 μg/mL GCol), 1; with P. aeruginosa PAO1 (at 4 μg/mL GPMB), 1. In addition, the “FIC index antibiotic + GCol” value with E. coli ATCC 25922 was 0.516. Also, the “Absolute MIC of antibiotic at 4 μg/mL GCol” value with P. aeruginosa PAO1 amounted to 2 µg/mL. Moreover, the “Absolute MIC of antibiotic at 4 μg/mL GPMB” value in the assay with P. aeruginosa PAO1 amounted to 2 µg/mL.

Turning to `CN[C@H](CC(C)C)C(=O)N[C@H]1C(=O)N[C@@H](CC(N)=O)C(=O)N[C@H]2C(=O)N[C@H]3C(=O)N[C@H](C(=O)N[C@H](C(=O)O)c4cc(O)cc(O)c4-c4cc3ccc4O)[C@H](O)c3ccc(c(Cl)c3)Oc3cc2cc(c3O[C@@H]2O[C@H](CO)[C@@H](O)[C@H](O)[C@H]2O[C@H]2C[C@](C)(N)[C@H](O)[C@H](C)O2)Oc2ccc(cc2Cl)[C@H]1O` [Vancomycin], the entries for the “Absolute MIC of antibiotic at 2 μg/mL GCol” value with A. baumannii ATCC 17978 and with E. coli ATCC 25922 were 64 µg/mL and 16 µg/mL, respectively. For the same compound, the “Absolute MIC of antibiotic at 2 μg/mL GPMB” value with A. baumannii ATCC 17978 came out at 16 µg/mL; in the assay with E. coli ATCC 25922, 8 µg/mL. The “FIC index antibiotic + GPMB” value with A. baumannii ATCC 17978 worked out at 0.188; in the assay with E. coli ATCC 25922 it was 0.313. For the same compound, the MIC in the assay on A. baumannii ATCC 17978 amounted to 128 µg/mL; with E. coli ATCC 25922 it was 128 µg/mL; in the assay on P. aeruginosa PAO1 it was 256 µg/mL. Besides, the Fold-potentiation of antibiotic with A. baumannii ATCC 17978 (at 2 μg/mL GCol) was found to be 2; in the assay on A. baumannii ATCC 17978 (at 2 μg/mL GPMB), 8; in the assay with E. coli ATCC 25922 (at 2 μg/mL GCol), 8; in the assay on E. coli ATCC 25922 (at 2 μg/mL GPMB), 16; in the assay with P. aeruginosa PAO1 (at 4 μg/mL GCol), 32; with P. aeruginosa PAO1 (at 4 μg/mL GPMB), 128. Further, the “FIC index antibiotic + GCol” value in the assay with E. coli ATCC 25922 was 0.25. Besides, the “Absolute MIC of antibiotic at 4 μg/mL GCol” value with P. aeruginosa PAO1 amounted to 8 µg/mL. Also, in the assay with P. aeruginosa PAO1, the “Absolute MIC of antibiotic at 4 μg/mL GPMB” value was 2 µg/mL.
